For orientation: Kd means the concentration at which binding is half-saturated.

Results on 2 compounds are retold here after article PMC6797808, “Fucosylated inhibitors of recently identified bangle lectin from Photorhabdus asymbiotica” (Scientific Reports, 2019).

Converted amounts (≈) assume the structure as drawn.

Assay [1] has as its system P. asymbiotica subsp. australis cells. The experiment in a line: Cell aggregation (cross-linking) assay. To be noted: three independent measurements. It counts as cell-based, Photorhabdus asymbiotica subsp. australis. From the text:
Because of the aggregation of PHL by calixarenes and dendrimers during SPR and ITC experiments, we decided to compare tetravalent compounds at a higher level. We performed a series of in vitro aggregation assays to reveal their aggregation properties towards P. asymbiotica subsp. australis (Table 4, Fig. 5). Prior to each assay, we confirmed the absence of aggregates in two negative controls – bacterial cells in PBS buffer and in the presence of azide 1 as a monomer. With all chosen compounds, we observed bacterial aggregates of a variable size that confirmed that they are capable of interacting with a cell surface. This effect may be caused by interaction of the multivalent inhibitors with PHL or other receptors. The concentration of the first appearance of aggregates varied according to the nature of the ligand used. […] An unexpected observation was that calixarene 7 had the lowest aggregation potential. In contrast to other techniques (hemagglutination, SPR and ITC), where calixarenes 6 and 7 provided similar results, during cross-linking experiments calixarene 7 was four times worse than calixarene 6. At the same time, both tetrameric calixarenes 6 and 7 are in a 1,3-alternate conformation with the two-faced presentation of the fucopyranosyl epitopes on opposite regions probably occupying a similar spatial orientation. The only difference is the tert-Bu group on the upper rim in calixarene 6, which might contribute to nonpolar interactions with whole P. asymbiotica cells.
P. asymbiotica subsp. australis was inoculated from stock cells stored at −80 °C into a standard LB media and were grown in 30 °C under an orbital shaking overnight. Bacterial growth was tracked by measuring the optical density of the broth at 600 nm (OD600) using a spectrophotometer (Biochrom Ltd., BioPhotometer WGA CO 8000 Biowave). Cells were harvested when reaching an OD600 = 0.5. The culture was centrifuged at 4,300 g and room temperature for 2 minutes (Minispin, Eppendorf, Germany) and cells were then washed three times with PBS buffer. Cells were diluted in PBS to OD600 of 2.0 and kept in a fridge until performing the aggregation assay.
P. asymbiotica subsp. australis cells and fucosylated compounds in a concentration ranging from 50 mM to 3.125 mM were gently mixed in a 9:1 (v/v) ratio. The reaction mixtures were left at room temperature for 10 minutes. 5 µl of reaction mixture was then transferred onto a microscope slide and observed under a fluorescence microscope (OLYMPUS IX81 Microscope IX81F-3 with IX2-UCB-2 Controller and X-Cite 120PC Q; Olympus and Excelitas Technologies, Japan, resp. USA). As a negative control, bacterial cells with/without azide 1 as a monomer were used. Three independent measurements were performed.

Assay [2] concerns the target T1, PHL (Photorhabdus asymbiotica, UniProt C7BLE4). The experiment in a line: Isothermal titration calorimetry of PHL with ligands. The assay is classed as binding. The conditions noted are these: for Kd / −TΔS / −ΔG / −ΔH / n (stoichiometry): ITC at 25 °C; for n (stoichiometry): two independent measurements; for Potency L-Fuc: KD L-fucose / KD ligand; for β L-Fuc (affinity improvement factor): KD,basic unit/(valency × KD,ligand), basic unit L-Fuc; for β Azide1 (affinity improvement factor): basic unit azide 1. From the text: The binding of PHL to different α-L-fucoside compounds was further characterized by isothermal titration calorimetry (ITC), enabling determination of the complete thermodynamic profile of the molecular interactions (Table 3, Fig. 4). […] Because of this, it was not possible to evaluate the data, despite the obvious interaction. The dendrimers also cross-linked/aggregated the protein as with calixarenes, however the curves provided clear outcomes with an affinity in the low micromolar range. The dissociation constants (KD) of all dendrimers correlate with their valency – the higher number of fucose, the more decreased KD. […] The stoichiometry value n corresponds to the number of terminal fucoses per ligand molecule. The n value decreases from 4 to 1 as the number of fucose units increases from 1 to 12 (Table 3).
PHL protein in buffer A was equilibrated at room temperature at least for 30 min before ITC measurement. All ITC experiments were performed using ITC200 calorimeter (Malvern Panalytical, UK) at 25 °C. Carbohydrate ligands dissolved in buffer A were used at different concentrations. Protein in the calorimeter cell (50 μM) was titrated by consecutive additions (2 μl) of the ligand (1.5–5 mM) in the syringe while stirring at 1000 rpm. Integrated heat effects were analysed by nonlinear regression using a single-site binding model and global fitting in Origin 7 software (Microcal Instruments)[37]. The thermodynamic parameters of synthesised inhibitors were determined from two independent measurements.
Background: ITC needs no label: the signal is the heat of the interaction.

Assay [3] addresses T1, PHL. The experiment in a line: Hemagglutination inhibition assay with PHL (papain-treated human RBCs O). To be noted: for MIC (minimal inhibitory concentration, hemagglutination by PHL): RBC O, two independent measurements; for PotencyL-Fuc: MIC L-fucose / MIC ligand; for β L-Fuc (affinity improvement factor): MICbasic unit/(valency × MICligand), basic unit L-Fuc; for β Azide1 (affinity improvement factor): basic unit azide 1. The assay is classed as cell-based. As for the experimental part:
The set of potential ligands 1–10 with different levels of fucosylation was tested, and their inhibition potency on hemagglutination by PHL was assessed (Table 1, Fig. 2). […] To assess the contribution of valency to the affinity increase, an affinity improvement factor β was calculated as the relationship MICbasic unit/(valency × MICligand).
Human red blood cells (RBCs) O were processed according to previously published work[16]. In brief, RBCs O treated with sodium citrate were washed four times by PBS buffer (137 mM NaCl, 2.7 mM KCl, 8 mM Na2HPO4, 1.47 mM KH2PO4, pH 7.4), diluted to 50% by PBS with 0.005% (w/w) sodium azide and treated by 0.1% papain for the duration of 30 minutes.
Hemagglutination inhibition assay was performed for specificity and semi-quantitative affinity of the PHL interaction with the compounds. All carbohydrate inhibitors in 50 mM starting concentration were serially diluted in the PBS buffer and used for a determination of the lowest inhibiting concentration. As a blank, the PBS buffer supplemented with the appropriate amount of DMSO was used in order to exclude potential interference with the interaction. The individual samples were mixed with the lectin in concentration 2 mg/ml in a 5 μl:5 μl ratio. Thereafter, 10 μl of 10% RBCs O in PBS buffer was added, thoroughly mixed and incubated for 10 minutes at room temperature. Following incubation, the mixture was again mixed and the reaction was observed on microscope slides using Levenhuk 2L NG microscope with Levenhuk D2L digital camera (Levenhuk, USA). Imagines were obtained via software ToupView for Windows (Levenhuk). The positive (PHL without inhibitor) and negative control (reaction without PHL) were prepared and processed in the same way using the appropriate volume of PBS buffer instead of the not included components. The lowest concentration of inhibitor able to inhibit agglutination was determined and compared with the standard (L-fucose). Minimal inhibitory concentrations (MIC) of synthesised inhibitors were determined from two independent measurements.

T1 sequence (C7BLE4 entry or part of it): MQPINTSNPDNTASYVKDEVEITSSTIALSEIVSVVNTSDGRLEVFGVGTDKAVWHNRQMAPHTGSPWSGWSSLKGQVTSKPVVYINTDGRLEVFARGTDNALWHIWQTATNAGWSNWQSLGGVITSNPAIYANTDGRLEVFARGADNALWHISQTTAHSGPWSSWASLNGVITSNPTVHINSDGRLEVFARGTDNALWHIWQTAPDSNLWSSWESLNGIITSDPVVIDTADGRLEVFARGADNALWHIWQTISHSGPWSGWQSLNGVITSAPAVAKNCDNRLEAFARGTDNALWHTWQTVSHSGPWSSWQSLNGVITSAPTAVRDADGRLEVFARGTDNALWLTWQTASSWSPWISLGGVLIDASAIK

As to `C[C@@H]1O[C@@H](CCN=[N+]=[N-])[C@@H](O)[C@H](O)[C@@H]1O` [Azide 1], the “The lowest concentration able to aggregate P. asymbiotica cells” value in assay [1] is given as “No visible aggregation in used concentrations”. In addition, in assay [2], binding was characterised by a dissociation constant (Kd) of 105 ± 9 µM, the “−TΔS” value is 4.83 ± 1.05 kcal/mol, the “−ΔG” value was found to be 5.43 ± 0.478 kcal/mol and the “−ΔH” value stood at 10.3 ± 0.932 kcal/mol. The “n (stoichiometry)” value in assay [2] was found to be 4.1 ± 0.3. In assay [2] (ITC), the “Potency L-Fuc” value was 13, the “β L-Fuc (affinity improvement factor)” value is given as 13 and the “β Azide1 (affinity improvement factor)” value came out at 1. Also, the “MIC (minimal inhibitory concentration, hemagglutination by PHL)” value in assay [3] amounted to 200 µM (≈ 43.4 µg/mL). In assay [3] (hemagglutination), the PotencyL-Fuc amounted to 15.6, the “β L-Fuc (affinity improvement factor)” value was determined as 15.6 and the “β Azide1 (affinity improvement factor)” value was found to be 1. This compound also yielded a PotencyL-Fuc in assay [3] (hemagglutination, listed as azide 1) of 16.

For `C[C@@H]1O[C@@H](CCn2cc(COCC(COCc3cn(CC[C@@H]4O[C@@H](C)[C@@H](O)[C@@H](O)[C@@H]4O)nn3)(COCc3cn(CC[C@@H]4O[C@@H](C)[C@@H](O)[C@@H](O)[C@@H]4O)nn3)COCc3cn(CC[C@@H]4O[C@@H](C)[C@@H](O)[C@@H](O)[C@@H]4O)nn3)nn2)[C@@H](O)[C@H](O)[C@@H]1O` [Dendrimer 8], the “The lowest concentration able to aggregate P. asymbiotica cells” value in assay [1] is listed as 0.625 mM. In assay [2], the affinity, expressed as Kd, was 36.9 ± 3.7 µM; the “−TΔS” value was found to be 6.84 ± 0.765 kcal/mol; the “−ΔG” value was 6.05 ± 0.598 kcal/mol; the “−ΔH” value was found to be 12.9 ± 0.454 kcal/mol. Also, in assay [2], the “n (stoichiometry)” value is reported as 3.0 ± 0.1. Moreover, in assay [2] (ITC), the “Potency L-Fuc” value came out at 38, the “β L-Fuc (affinity improvement factor)” value was found to be 9 and the “β Azide1 (affinity improvement factor)” value is listed as 1. The compound also registered a PotencyAzide1 in assay [2] (ITC, relative to azide 1) of 3. In addition, in assay [3], the “MIC (minimal inhibitory concentration, hemagglutination by PHL)” value is 50 µM (≈ 57.9 µg/mL). Moreover, in assay [3] (hemagglutination), the PotencyL-Fuc is listed as 62.5, the “β L-Fuc (affinity improvement factor)” value came to 15.6 and the “β Azide1 (affinity improvement factor)” value is reported as 1. In addition, in assay [3] (hemagglutination, relative to azide 1), the PotencyAzide1 was found to be 4.
